Source: ChEMBL document CHEMBL3627650, “Design, synthesis, and evaluation of new endomorphin analogs with enhanced central antinociception after peripheral administration” (Bioorg Med Chem Lett, 2015)
Calls of active or inactive are those of the source. The calls are words filed in the database; no cut-off is given here.

Columns and labels:
Mus musculus [1] = test: Antinociceptive activity in iv dosed mouse prolonged tonic phase inflammatory pain model assessed as inhibition of formalin-induced licking/biting behavior; type: functional, organism-based
Mus musculus [2] = test: Antinociceptive activity in mouse assessed as inhibition of tail flick at 20 nmol, icv in presence of opioid receptor antagonist naloxone; type: functional, organism-based
Mus musculus [3] = test: Antinociceptive activity in mouse assessed as inhibition of tail flick at 16 mg/kg, iv in presence of opioid receptor antagonist naloxone methiodide; type: functional, organism-based
Mus musculus [4] = test: Antinociceptive activity in icv dosed mouse assessed as inhibition of tail flick measured at 5 to 60 mins; type: functional; details: for ED50: central
Mus musculus [5] = test: Antinociceptive activity in mouse prolonged tonic phase inflammatory pain model assessed as inhibition of formalin-induced licking/biting behavior at 16 mg/kg, iv in presence of opioid receptor antagonist naloxone; type: functional, organism-based
Mus musculus [6] = test: Antinociceptive activity in mouse acute phase inflammatory pain model assessed as inhibition of formalin-induced licking/biting behavior at 16 mg/kg, iv in presence of opioid receptor antagonist naloxone; type: functional, organism-based
Mus musculus [7] = test: Antinociceptive activity in iv dosed mouse acute phase inflammatory pain model assessed as inhibition of formalin-induced licking/biting behavior; type: functional, organism-based
Mus musculus [8] = test: Antinociceptive activity in mouse assessed as inhibition of tail flick at 4 to 16 mg/kg, iv measured at 60 mins relative to control; type: functional
Mus musculus [9] = test: Antinociceptive activity in mouse assessed as inhibition of tail flick at 16 mg/kg, iv in presence of opioid receptor antagonist naloxone; type: functional, organism-based
[10] = biological target: Delta-type opioid receptor (Homo sapiens, UniProt P41143); test: Displacement of [3H]-DPDPE from delta opioid receptor (unknown origin) transfected in HEK293 cells; type: cell-based
Mu-type opioid receptor [11] = biological target: T1, Mu-type opioid receptor (Homo sapiens, UniProt P35372); test: Displacement of [3H]-DAMGO from mu opioid receptor (unknown origin) transfected in HEK293 cells; type: cell-based
Mus musculus [12] = test: Antinociceptive activity in mouse assessed as inhibition of tail flick at 2 to 20 nmol, icv; type: functional, organism-based; details: TDE = time-dependent effect
Mu-type opioid receptor [13] = biological target: T1, Mu-type opioid receptor; test: Agonist activity at mu opioid receptor (unknown origin) transfected in HEK293 cells assessed as inhibition of forskolin-stimulated cAMP production; type: functional, cell-based
Homo sapiens = species: Homo sapiens; test: Selectivity ratio of Ki for delta opioid receptor (unknown origin) to Ki for mu opioid receptor (unknown origin)
Mus musculus [14] = test: Antinociceptive activity in mouse assessed as inhibition of tail flick at 16 mg/kg, iv measured at 5 to 60 mins relative to control; type: functional
Mus musculus [15] = test: Antinociceptive activity in iv dosed mouse assessed as inhibition of tail flick measured at 5 to 60 mins; type: functional, organism-based
Mus musculus [16] = test: Antinociceptive activity in mouse assessed as inhibition of tail flick at 2 to 20 nmol, icv measured after 30 mins; type: functional, organism-based
Mus musculus [17] = test: Antinociceptive activity in mouse prolonged tonic phase inflammatory pain model assessed as inhibition of formalin-induced licking/biting behavior at 4 mg/kg, iv; type: functional, organism-based
Mus musculus [18] = test: Antinociceptive activity in mouse assessed as inhibition of tail flick at 2 to 20 nmol, icv measured up to 30 mins relative to control; type: functional
Mus musculus [19] = test: Antinociceptive activity in mouse assessed as inhibition of tail flick at 4 mg/kg, iv measured at 5 to 60 mins; type: functional, organism-based
Mus musculus [20] = test: Antinociceptive activity in mouse acute phase inflammatory pain model assessed as inhibition of formalin-induced licking/biting behavior at 4 mg/kg, iv; type: functional, organism-based

T1 sequence (P35372 whole entry): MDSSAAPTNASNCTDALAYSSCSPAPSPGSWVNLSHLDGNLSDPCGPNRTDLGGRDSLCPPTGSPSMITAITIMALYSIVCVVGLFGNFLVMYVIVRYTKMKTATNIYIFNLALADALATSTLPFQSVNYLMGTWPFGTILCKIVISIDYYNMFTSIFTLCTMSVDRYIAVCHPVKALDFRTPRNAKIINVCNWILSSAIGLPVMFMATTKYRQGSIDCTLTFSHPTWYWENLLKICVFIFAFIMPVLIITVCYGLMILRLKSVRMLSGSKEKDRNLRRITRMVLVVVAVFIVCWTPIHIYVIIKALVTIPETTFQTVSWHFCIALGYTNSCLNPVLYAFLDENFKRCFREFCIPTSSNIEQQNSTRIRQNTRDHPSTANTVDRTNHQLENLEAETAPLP
Delta-type opioid receptor, sequence (P41143 whole entry): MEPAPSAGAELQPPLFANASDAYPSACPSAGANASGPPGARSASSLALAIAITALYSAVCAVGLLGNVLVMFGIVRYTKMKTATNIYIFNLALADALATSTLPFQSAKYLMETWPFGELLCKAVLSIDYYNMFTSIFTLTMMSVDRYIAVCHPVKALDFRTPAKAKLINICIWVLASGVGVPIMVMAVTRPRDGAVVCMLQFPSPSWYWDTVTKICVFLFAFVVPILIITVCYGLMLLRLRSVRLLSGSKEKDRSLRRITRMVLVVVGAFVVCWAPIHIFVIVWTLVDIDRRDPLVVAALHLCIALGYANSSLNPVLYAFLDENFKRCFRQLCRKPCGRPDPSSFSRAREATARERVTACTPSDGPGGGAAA

Compound | Activity (Mus musculus [1]) | Activity (Mus musculus [2]) | Activity (Mus musculus [3]) | Activity (Mus musculus [4]) | ED50 (Mus musculus [4]) | Activity (Mus musculus [5]) | Activity (Mus musculus [6]) | Activity (Mus musculus [7]) | MPE (Mus musculus [8]) | Activity (Mus musculus [9]) | Ki [10] | Ki (Mu-type opioid receptor [11]) | Activity (Mus musculus [12]) | EC50 (Mu-type opioid receptor [13]) | Emax (Mu-type opioid receptor [13]) | Ratio Ki (Homo sapiens) | MPE (Mus musculus [14]) | Activity (Mus musculus [15]) | also measured
C=C(C(N)=O)[C@H](NC(=O)[C@H](Cc1c[nH]c2ccccc12)NC(=O)[C@@H]1CCCN1C(=O)[C@@H](N)Cc1ccc(O)cc1)c1ccsc1 | Dose-dependent effect | inactive | Active | Dose-dependent effect | 0.00223 µmol/kg | inactive | inactive | Dose-dependent effect | 25% | inactive | 13.3 µM | 0.515 nM | tde | 0.0643 nM | 97% | 25800 | 89.8% | Dose-dependent effect | –
C=C(C(N)=O)[C@H](NC(=O)[C@H](Cc1c[nH]c2ccccc12)NC(=O)[C@@H]1CCCN1C(=O)[C@@H](N)Cc1ccc(O)cc1)c1cccs1 | Dose-dependent effect | inactive | Active | Dose-dependent effect | 0.00207 µmol/kg | inactive | inactive | Dose-dependent effect | 25% | inactive | 12 µM | 0.565 nM | tde | 0.0629 nM | 98.2% | 21300 | 86.6% | Dose-dependent effect | –
NC(=O)[C@H](Cc1ccccc1)NC(=O)[C@H](Cc1c[nH]c2ccccc12)NC(=O)[C@@H]1CCCN1C(=O)[C@@H](N)Cc1ccc(O)cc1 [ENDOMORPHIN-1] | – | – | – | – | – | – | – | – | – | – | – | – | – | – | – | – | – | – | Activity (Mus musculus [16]): inactive; Activity (Mus musculus [17]): inactive; MPE (Mus musculus [18]): 52.1%; Activity (Mus musculus [19]): inactive; Activity (Mus musculus [20]): inactive
